In one series the test system is OVCAR3. The experiment in a line: Combined use with combination drug, matrix study, Bliss Independence model (Cell Titer Glo, 7 days). The class given is cell-based. The procedure:
(§1) DLD-1 colorectal adenocarcinoma cells, DLD-1 BRCA2 (-/-) colorectal adenocarcinoma cells, SHP-77 human small cell lung cancer cells, NCI-H82 human small cell lung cancer cells, LNCAP prostate cancer cells, KURAMOCHI human ovarian cancer cells, A2780 human ovarian cancer cells, and NCI-H23 non-small cell lung cancer cells were cultured in a 1640 medium containing 10% fetal bovine serum. SKOV3 human ovarian cancer cells were cultured in a McCoy's 5A (modified) medium containing 10% fetal bovine serum. OVCAR3 ovarian cancer cells were cultured in a 1640 medium containing 20% fetal bovine serum and 10 µg/mL bovine insulin. MDA-MB-436 breast cancer cells (natural BRCA1 mutation) and A549 non-small cell lung cancer cells were cultured in a DMEM medium containing 10% fetal bovine serum. Capan-1 human pancreatic cancer cells (natural BRCA2 mutation) were cultured in an IMDM medium containing 20% fetal bovine serum. The cells were all cultured at 37 °C with 5% CO2. Cells at the logarithmic growth phase were available for the experiment.
(§2) 100 µL of the cell medium was added to rows A and H and columns 1 and 12 of a 96-well cell culture plate. Cultured cells were resuspended (adherent cells were digested with trypsin) and counted to give information on cell density and viability. The dilution ratio of the resuspended cells required for inoculating a fixed number of cells into 80 µL of the medium in each culture well was calculated based on the cell density information. After the resuspended cells were diluted with the corresponding medium, 80 µL of the diluted cells were transferred to columns 2-11 of rows B-G of a 96-well cell culture plate using an Eppendorf multi-channel pipette (60 wells in total for each plate). The cell culture plate was incubated overnight in an incubator at 37 °C with 5% CO2.
(§3) The test compound and the combination compound were dissolved in DMSO to give a 10 mM solution for later use. In the experiment, the compound was further diluted to the corresponding concentration according to the concentration designed in the experiment, and based on this concentration, serial gradient dilution was performed. Matrix study was performed at 8 or 7 dose concentrations of the test compound (the lowest dose concentration was 0, and other specific concentration values were shown in FIG. 1) and 7 or 8 dose concentrations of the combination compound (the lowest dose concentration was 0, and other specific concentration values were shown in FIG. 1). 10 µL of each of the diluted combination compound and test compound was added to the corresponding cell plate well, such that the final concentration of DMSO was 0.25%. The test compound and the cells were incubated in an incubator at 37 °C with 5% CO2 for another 7 days, Cell Titer Glo was added at 50 µL/well, and the luminescence value of each well was read using an Envision microplate reader.
(§4) The luminescence value of the well containing only the cell medium was taken as the background (RLUbackground, corresponding cell survival rate to be 0%), the cell well containing only 0.25% DMSO without the compound was taken as the maximum signal (RLUDMSO, corresponding cell survival rate to be 100%), and the luminescence values of the remaining wells containing cells and compounds at different concentrations were taken as RLUsample. The survival rate of each cell well was calculated as follows: Survival rate (%) = (RLUsample−RLUbackground)/(RLUDMSO−RLUbackground) × 100% [formula]
(§5) The interaction between drugs (synergistic, independent, or antagonistic) was statistically analyzed by the Bliss Independence model using Combenefit software (Bliss, C.I., Bacteriol. Rev., 1956, 20, 243-258). The model assumes that each drug acts independently. The theoretical expected action curve of the combination was calculated from the following equation: Bliss effect = effect A + effect B−effect A × effect B [formula] wherein effect A and effect B are the effects of drugs A and B alone at specific concentrations. […]
(In general: Cellular ATP, detected with luciferase, serves as a proxy for viable cell number.)

The next series deals with A549. The series is described as above. The class given is cell-based. On the procedure: as §1, §2, §3, §4, §5
The next series deals with DLD-1 BRCA2 (-/-). The series is described as above. The format is cell-based. The procedure:
as §1, §2, §3, §4, §5

For series [1], the system named is human breast cancer MDA-MB-436 cells. The experiment in a line: Efficacy of combined use with olaparib in MDA-MB-436 xenograft tumor model. The format is in vivo, NOD-SCID mice. The conditions noted are these: 30 mg/kg QD intragastric in combination with 10 mg/kg olaparib QD. The text has this: The anti-tumor activity of the sodium salt of compound I used in combination with olaparib (MCE, 136925) was studied using a MDA-MB-436 subcutaneous tumor model. 24 female NOD-SCID mice (6-7 weeks old, Beijing Vital River Laboratory Animal Technology Co., Ltd.) were subcutaneously inoculated with 1 × 10^7 human breast cancer MDA-MB-436 cells (natural BRCA1 mutation, Nanjing Cobioer). When the tumors grew to 80-120 mm^3, the mice were randomly divided into four groups with six mice per group: a first group treated with vehicle control (QD) by intragastric administration, a second group treated with a 30 mg/kg solution of the sodium salt of compound I (QD) by intragastric administration, a third group treated with a 10 mg/kg olaparib solution (QD) by intragastric administration, and a fourth group treated with a 30 mg/kg solution of the sodium salt of compound I (QD) by intragastric administration and a 10 mg/kg olaparib solution (QD) by intragastric administration. The vehicle of olaparib was a solution containing 10% DMSO, 50% 2-hydroxypropyl-β-cyclodextrin (Aladdin-F2223139, 60% aqueous solution), and 40% water, the vehicle of the sodium salt of compound I was 10% (w/v) Vitamin E TPGS (Hanhong Chemical-BH-GN0100619-22 1101) aqueous solution, and the vehicle of the vehicle control group was a mixture of the vehicle of olaparib and the vehicle of the sodium salt of compound I (mixed at a volume ratio of 1:1). Mice had free access to food and water throughout the experiment.
Tumor diameters were measured twice weekly using a vernier caliper. The tumor volume (V) was calculated using the following formula: V = 0.5a × b^2, wherein a and b represent the long diameter and short diameter of the tumor, respectively.
Mouse body weight was measured twice weekly.
Two way ANOVA was used to compare the differences in tumor growth trend among groups, and a significant difference was considered when p < 0.05.

The next series deals with SKOV3. Kind of series: Combined use with combination drug, matrix study, Bliss Independence model (Cell Titer Glo, 7 days). The class given is cell-based, human. The procedure: as §1, §2, §3, §4, §5
A further series deals with NCI-H82. The series is described as above. The format is cell-based, human. The conditions noted are these: combination with Etoposide (Topoisomerase II inhibitor). The procedure: as §1, §2, §3, §4, §5
Another series deals with Capan-1. The description is as above. The format is cell-based, human. The procedure:
as §1, §2, §3, §4, §5

Another series deals with KURAMOCHI
The description is as above. The class given is cell-based, human. On the procedure:
as §1, §2, §3, §4, §5

The next series deals with A2780. The description is as above. The format is cell-based, human. The procedure: as §1, §2, §3, §4, §5
Where [2] appears, read: combination with Niraparib (PARP inhibitor).
Setting [3] is: combination with Olaparib (PARP inhibitor).
Setting [4] is: combination with Talazoparib (PARP inhibitor).
Where [5] appears, read: combination with Etoposide (Topoisomerase II inhibitor).
Setting [6] is: combination with Doxorubicin hydrochloride (Topoisomerase II inhibitor).
The mark [7] stands for this setting: combination with Paclitaxel (Tubulin inhibitor).

As for `COc1ccc(Cl)cc1-c1cc(C)ncc1C(=O)Nc1nc2ncc(-c3ccc(C#N)cc3)nc2s1.[Na]` [Sodium salt of compound I, Sodium Salt of 4-(5-Chloro-2-methoxyphenyl)-N-[6-(4-cyanophenyl)thiazolo[4,5-b]pyrazin-2-yl]-6-methylnicotinamide], the Combined effect result in the series on OVCAR3 (combination with Carboplatin (Platinum derivative)), with OVCAR3 (setting [2]), in the series on OVCAR3 (setting [3]), in the series on OVCAR3 (setting [4]), in the series with A549 (combination with Cisplatin (Platinum derivative)) and in the series on A549 (setting [5]) was “Synergistic” in each case. Also, the Combined effect result with DLD-1 BRCA2 (-/-) (combination with AZD5305 (PARP inhibitor)), in the series with DLD-1 BRCA2 (-/-) (setting [2]), with SKOV3 (setting [6]), in the series with SKOV3 (setting [7]), in the series on NCI-H82 and in the series with Capan-1 (setting [2]) was “Synergistic” throughout. Besides, the Combined effect result in the series with Capan-1 (setting [3]), with Capan-1 (combination with RP3500 (ATR inhibitor)), in the series with Capan-1 (setting [4]), in the series on KURAMOCHI (setting [6]), in the series on KURAMOCHI (setting [7]) and in the series with A2780 (setting [6]) was “Synergistic” throughout. Also, the Combined effect result with A2780 (setting [5]) and with A2780 (setting [7]) was “Synergistic” each time. The “anti-tumor effect of combination with olaparib” value in series [1] is “synergistic anti-tumor effect”. In addition, the tumor volume entry in series [1] (versus either single drug group) is given as “significantly lower”. Further, the safety entry in series [1] (condition of mice, body weight) was “good safety”.

For the origin of these results see patent EP4744665A1, “COMBINATION OF POLQ INHIBITOR COMPOUND AND ANTI-CANCER THERAPEUTIC AGENT OR RADIOTHERAPY” (Simcere Zaiming Pharmaceutical Co., Ltd., priority 2023, dated 2025).
